For assay [1], the target named is T1, Beta-ketoacyl-ACP-synthase III (Plasmodium falciparum, UniProt O77078).
T1 sequence (O77078 whole entry): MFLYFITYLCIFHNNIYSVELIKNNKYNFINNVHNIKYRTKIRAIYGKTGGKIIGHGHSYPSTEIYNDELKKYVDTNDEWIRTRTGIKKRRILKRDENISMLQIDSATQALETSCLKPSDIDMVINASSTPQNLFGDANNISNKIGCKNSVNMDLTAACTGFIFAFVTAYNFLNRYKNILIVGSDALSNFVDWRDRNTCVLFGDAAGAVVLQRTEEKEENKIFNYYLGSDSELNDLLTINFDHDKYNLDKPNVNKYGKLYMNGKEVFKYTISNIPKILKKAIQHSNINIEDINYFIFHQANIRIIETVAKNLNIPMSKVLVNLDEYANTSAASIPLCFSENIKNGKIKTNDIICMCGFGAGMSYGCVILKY
Kind of assay: Inhibition of Plasmodium falciparum FabH.

Assay [2] can be described thus: Inhibition of Escherichia coli FabH.
A further assay deals with Plasmodium falciparum. Kind of assay: Antiplasmodial activity against chloroquine-sensitive Plasmodium falciparum D6. In kind it is functional, organism-based.
Assay [3] deals with T2, Mycobacterial beta-ketoacyl-[acyl-carrier-protein] synthase III (Mycobacterium tuberculosis, UniProt P9WNG3).
T2 sequence (P9WNG3 whole entry): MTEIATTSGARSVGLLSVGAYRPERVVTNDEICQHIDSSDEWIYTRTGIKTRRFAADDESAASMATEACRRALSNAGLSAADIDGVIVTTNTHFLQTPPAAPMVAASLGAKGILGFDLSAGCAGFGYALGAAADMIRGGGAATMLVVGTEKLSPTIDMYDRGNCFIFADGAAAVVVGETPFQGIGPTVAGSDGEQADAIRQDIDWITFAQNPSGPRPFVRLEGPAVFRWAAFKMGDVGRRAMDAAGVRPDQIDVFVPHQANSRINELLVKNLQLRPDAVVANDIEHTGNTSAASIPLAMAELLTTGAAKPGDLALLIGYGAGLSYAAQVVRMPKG
Kind of assay: Inhibition of Mycobacterium tuberculosis FabH.

In assay [4] the test system is Escherichia coli. Briefly: Inhibition of Escherichia coli FabH assessed as restoration activity in presence of phosphate buffer after 16 hrs. Details: scale not given: the % may be the effect or the level left.
The subject of assay [5] is Escherichia coli. Briefly: Antibacterial activity against Escherichia coli tolC mutant. The format is functional.
The target of assay [6] is T3, Beta-ketoacyl-ACP-synthase III (Plasmodium falciparum) (UniProt O77078).
T3 sequence (whole entry): T1 sequence (O77078 whole entry)
Briefly: Inhibition of Plasmodium falciparum FabH at below 100 uM.

The test system of assay [7] is Escherichia coli. Briefly: Inhibition of Escherichia coli FabH at below 10 uM.

Converted amounts (≈) assume the structure as drawn. The source made the active and inactive calls. No cut-off for these calls is given here.

For orientation: IC50 means the concentration that gives 50% inhibition. What is called MIC99 is an inhibitory concentration at the 99% level, which refers to growth in some studies and to a panel of isolates in others. Turning to `Cc1ccc(S(=O)(=O)c2cc(O)c3ccccc3c2O)cc1`, the IC50 in assay [1] came to 73.6 nM; in assay [2], 13.6 nM; in the assay on Plasmodium falciparum, 7.69 µg/mL (≈ 24.5 µM); in assay [3] it was 0.61 nM. Also, the Activity in the assay on Escherichia coli [4] was found to be 90%. In the assay on Escherichia coli [5], this molecule had an MIC99 of 14.1 µg/mL (≈ 44.9 µM).

For `Cc1ccc(SC2=CC(=O)c3ccccc3C2=O)cc1`, the outcome (in assay [6]; in the assay with Escherichia coli [7]) was inactive. Moreover, the midpoint of inhibition in assay [3], the IC50, lay at 112 nM.

In the case of `CS(=O)(=O)c1cc(O)c2ccccc2c1O`, the IC50 in assay [1] came to 27.4 nM; in assay [2], 87.3 nM; in assay [3], 3.53 nM. Also, the MIC99 in the assay with Escherichia coli [5] is 9.7 µg/mL (≈ 40.7 µM).

Regarding `CCCc1ccc(S(=O)(=O)c2cc(O)c3ccccc3c2O)cc1`, the concentration for half-maximal inhibition (IC50) in assay [1] was 72.6 nM; in assay [2], 9.7 nM; in assay [3] it was 3.09 nM.

Take `Cc1ccc(S(=O)(=O)c2ccc3ccccc3c2)cc1`: the IC50 in assay [2] was above 10000 nM; in the assay with Plasmodium falciparum it was 8.74 µg/mL (≈ 31 µM); in assay [3], 138 nM. The result (in assay [6]; with Escherichia coli [7]) was inactive. This molecule yielded an MIC99 in the assay with Escherichia coli [5] above 90 µg/mL.

With `CC(=O)Nc1ccc(S(=O)(=O)c2cc(O)ccc2O)cc1`, the half-inhibitory concentration (IC50) was above 10000 nM in assay [2], 3.96 µg/mL (≈ 12.9 µM) in the assay on Plasmodium falciparum and 31.4 nM in assay [3]. The result (in assay [6]; in the assay on Escherichia coli [7]) was inactive. Moreover, the MIC99 against Escherichia coli [5] is above 90 µg/mL.

As for `O=C(O)CCS(=O)(=O)c1cc(O)c2ccccc2c1O`, the half-inhibitory concentration (IC50) amounted to 46.5 nM in assay [1], 96.5 nM in assay [2] and 3.53 nM in assay [3].

For `O=S(=O)(c1ccccc1)c1cc(O)c2ccccc2c1O`, the 50% inhibitory concentration (IC50) in assay [1] is 279 nM; in assay [2], 21.2 nM; in assay [3], 2.84 nM.

For the molecule `O=S(=O)(c1ccc(Cl)cc1)c1cc(O)c2ccccc2c1O`, the IC50 in assay [1] was found to be 129 nM; in assay [2] it was 8.8 nM; in the assay with Plasmodium falciparum, 3.23 µg/mL (≈ 9.65 µM); in assay [3], 3.61 nM.

With `Cc1ccc(S(=O)(=O)c2cc(O)c3cc4ccccc4cc3c2O)cc1`, the half-inhibitory concentration (IC50) in assay [1] was 341 nM; in assay [2] it was 112 nM; in assay [3], 8.47 nM.

Regarding `CC(=O)Nc1ccc(S(=O)(=O)c2cc(O)c3ccccc3c2O)cc1`, the IC50 in assay [1] amounted to 29.6 nM; in assay [2], 11.8 nM; in the assay with Plasmodium falciparum it was 4.98 µg/mL (≈ 13.9 µM); in assay [3], 3.76 nM. In addition, in the assay on Escherichia coli [5], the MIC99 came out at 12.3 µg/mL (≈ 34.4 µM).

As for `O=S(=O)(c1ccc2ccccc2c1)c1cc(O)c2ccccc2c1O`, the IC50 in assay [1] was 393 nM; in assay [2], 15.4 nM; in assay [3] it was 1.49 nM.

In the case of `Cc1ccc(S(=O)(=O)C2=CC(=O)c3ccccc3C2=O)cc1`, the IC50 in assay [1] came out at 1420 nM; in assay [2] it was 187 nM; in assay [3] it was 1.99 nM.

`Cc1ccc(S(=O)(=O)c2cc(O)ccc2O)cc1`: the concentration for half-maximal inhibition (IC50) was above 10000 nM in assay [2], 31.3 µg/mL (≈ 119 µM) in the assay on Plasmodium falciparum and 34.4 nM in assay [3]. Also, the outcome (in assay [6]; with Escherichia coli [7]) was inactive. Moreover, in the assay with Escherichia coli [5], the MIC99 was above 90 µg/mL.
